Assay results taken from US20090053139A1, “Dendrimer based compositions and methods of using the same” (Regents of the University of Michigan, priority 2006, published 2009).

Tests used:
[1] = Toxicity of dendrimer conjugates and free methotrexate in SCID mice; type: in vivo
Description: (§1) Delivery of targeted nanoparticle therapeutic.
Toxicity of dendrimer conjugates. […] No morphologic abnormalities were observed on the histopathology examination.
The remaining experimental groups had very uniform body weight fluctuations nonindicative of toxicity when compared with control groups with saline or conjugate without methotrexate.

[2] = tested on: human KB xenografts; test: Tumor growth and survival of SCID mice bearing s.c. human KB xenografts; type: in vivo
Experimental: as §1
Targeted drug delivery to tumor cells through the folate receptor. The efficacy of different doses of conjugates was tested on SCID CB-17 mice bearing s.c. human KB xenografts and was compared with equivalent and higher doses of free methotrexate. […] Six groups of SCID mice with five mice in each group were injected s.c. on one flank with 5×10^6 KB cells in 0.2 mL PBS suspension. The highest total dose of G5-FI-FA-MTX therapeutic used equals 55.0 mg/kg and is equivalent to a 5.0 mg/kg total cumulative dose of free methotrexate (FIG. 29). The therapeutic dose of the conjugate was compared with three cumulative doses of free methotrexate equivalent to 33.3, 21.7, and 5.0 mg/kg accumulated in 10 to 15 injections based on mouse survival. Saline and the conjugate without methotrexate (G5-FI-FA) were used as controls.
The equivalent dose of methotrexate delivered with both targeted conjugates to the surviving mice was higher than the dose of free methotrexate because all of the mice receiving free methotrexate died by day 66 of the trial (FIG. 30). The survival of mice from groups receiving G5-FI-FA-MTX or G5-FA-MTX conjugate indicate that tumor growth based on the end-point volume of 4 cm3 can be delayed by at least 30 days (FIG. 30). This value indicates the antitumor effectiveness of the conjugate because it mimics clinical end-points and requires observation of the mice throughout the progression of the disease. […] The tumor in this mouse was not palpable for the next 20 days up to the 60th day of the trial. […] Thus, in some embodiments, the present invention provides a composition comprising a dendrimer comprising a targeting agent, a therapeutic agent and an imaging agent. In preferred embodiments, the dendrimer is used for delivery, in a target specific manner, of a therapeutic agent (e.g., methotrexate) to tumor cells in vivo.

[3] = tested on: KB cells; test: Inhibition of KB cell growth (XTT assay / total cell protein); type: cell-based, human
Experimental: Cell culture and treatment.
Evaluation of dendrimer cytotoxicity. Cell growth was determined by assay of the total protein in lysates of treated cells using a bicinchoninic acid reagent (PIERCE, and by XTT assay, using a kit from Roche.
Because the binding of the conjugate to KB cells reaches maximal uptake within 1 h (Quintana et al, 2002. Pharmaceutical Research 19: 1310-1316), the effect of the G5-FI-FA-MTX on cell growth was initially tested by pre-incubation of cells with the conjugate for 1 h, followed by incubation in a drug-free medium for 5 d. […] When the cells were pre-incubated with dendrimers for 4 h, there was a modest decrease of about 10% in cell growth as determined by XTT assay. The cytotoxicity measurements were therefore done by incubation with the dendrimer for a minimum of 24 h, a pre-incubation time period shown to induce significant cytotoxicity.
Time course and dose dependent inhibition of cell growth. Previous studies have shown that MTX-induced cytotoxicity is detectable in vitro only if the medium is completely deprived of FA (See, e.g., Sobrero & Bertino, Int. J. Cell Cloning 4, 51 (1986)). The effect of the trifunctional dendrimers on cell growth was tested in cells incubated in a FA-deficient medium. Cells were treated with 300 nM conjugates (equivalent of 1500 nM MTX) or 1500 nM free MTX for 1-4 days, and cell proliferation was determined by estimation of cellular protein content. […] KB cells which express high and low FAR were incubated with 30 nM of the dendrimers for 1 hr at 37° C., rinsed, and the fluorescence of cells was determined by flow cytometric analysis (See. e.g., FIG. 21, left panel). […]
As the G5-FITC-FA-MTX preparation contained equimolar concentrations of MTX and FA, the effect of similar concentrations of free MTX and free FA on the inhibition of cell growth was determined. […] The cells were rinsed to remove the drugs and incubated with fresh medium for an additional 6 d, and total cell protein was determined. […]

| SMILES | liver histopathology ([1]; mouse, in vivo) | toxicity (body weight) ([1]; total dose equivalent to 5.0 mg/kg free methotrexate) | effect on tumor growth ([2]; cumulative dose equivalent to 5.0 mg/kg methotrexate (G5-FI-FA equimolar dendrimer)) | effect on tumor growth ([2]; free methotrexate cumulative 33.3 and 21.7 mg/kg) | survivors at termination of the trial ([2]; second 99-day trial) | inhibition of cell growth (XTT assay) ([3]; 1, 2 or 3 days) | growth inhibition of free MTX versus equimolar MTX in conjugate ([3]; below 1 μM) | reversal of MTX-induced growth arrest by free FA ([3]; 150 nM FA with 150 nM MTX, 24 h, then 6 d, total cell protein) |
| --- | --- | --- | --- | --- | --- | --- | --- | --- |
| CN(Cc1cnc2nc(N)nc(N)c2n1)c1ccc(C(=O)N[C@@H](CCC(=O)O)C(=O)O)cc1 [MTX, Methotrexate] | advanced liver lesions, collections of inflammatory cells, and periportal inflammation | neither the total accumulated dose of therapeutic conjugate equivalent to 5.0 mg/kg free methotrexate nor free methotrexate at the same dose were toxic | no effect on tumor growth | affecting tumor growth | no mice surviving | time-dependent cytotoxicity | higher than with the equimolar concentrations of MTX in the G5-FITC-FA-MTX |  |
| Nc1nc2ncc(CNc3ccc(C(=O)N[C@@H](CCC(=O)O)C(=O)O)cc3)nc2c(=O)[nH]1 [FA, Folic Acid] |  |  |  |  |  |  |  | almost completely reversed the growth-arrest caused by 150 nM MTX |
